One experiment deals with P. aeruginosa SVB-B9. As to the kind of experiment: MIC assay, bacteria (CLSI broth microdilution). It is filed as cell-based, Pseudomonas aeruginosa. The settings on record: Gram negative, CA-MHB, 37 °C with shaking, 18 h, ~5 x10^5 CFU/mL, triplicate, three biological replicates.
A further experiment deals with E. coli ATCC 25922. As to the kind of experiment: MIC assay, bacteria (CLSI broth microdilution). It is filed as cell-based, Escherichia coli. To be noted: Gram negative, CA-MHB, 37 °C with shaking, 18 h, ~5 x10^5 CFU/mL, triplicate, three biological replicates.
Another experiment relates to S. aureus ATCC 25913. As to the kind of experiment: MIC assay, bacteria (CLSI broth microdilution). It is filed as cell-based. The settings on record: Staphylococcus aureus, ATCC25913, Gram positive, CA-MHB, 37 °C with shaking, 18 h, ~5 x10^5 CFU/mL, triplicate, three biological replicates, read-out: Minimum Inhibitory Concentrations, S. aureus ATCC 25913.
The next experiment relates to C. albicans SC5314. In words: MIC assay, fungus (CLSI broth microdilution). It is filed as cell-based. The settings on record: Candida albicans, RPMI 1640, 35 °C, 48 h, 0.5 x 10^3 to 2.5 x 10^3 CFU/mL, triplicate, three independent assays, read-out: Minimum Inhibitory Concentrations, C. albicans SC5314 (reference strain). In general terms: Dilution methods test growth across graded concentrations, often in twofold steps.

In brackets after ≈: the same amount, converted by molar mass.

Data on three compounds can be found in publication PMC11273936, “The Antimicrobial Peptide Capitellacin: Chemical Synthesis of Analogues to Probe the Role of Disulphide Bridges and Their Replacement with Vinyl Sulphides” (Antibiotics, 2024).

Take polymyxin B [PMB]: in the experiment on P. aeruginosa SVB-B9, the “Minimum Inhibitory Concentrations, P. aeruginosa SVB-B9 (type strain)” value stood at 0.125 µM. Also, the “Minimum Inhibitory Concentrations, E. coli ATCC 25922” value in the experiment with E. coli ATCC 25922 was 0.125 µM.

For `CC1(C)S[C@@H]2[C@H](NC(=O)[C@H](N)c3ccc(O)cc3)C(=O)N2[C@H]1C(=O)O` [AMX, amoxicillin], in the experiment on S. aureus ATCC 25913, the MIC stood at 2 µM (≈ 0.731 µg/mL).

For the compound `C[C@@H]1[C@H](O)[C@@H](C)/C=C/C=C/C=C/C=C/C=C/C=C/C=C/[C@H](O[C@@H]2O[C@H](C)[C@@H](O)[C@H](N)[C@@H]2O)C[C@@H]2O[C@](O)(C[C@@H](O)C[C@@H](O)[C@H](O)CC[C@@H](O)C[C@@H](O)CC(=O)O[C@H]1C)C[C@H](O)[C@H]2C(=O)O` [AMB, amphotericin B], the MIC with C. albicans SC5314 was 1 µM (≈ 0.924 µg/mL).
